Assay results from the NIST ThermoML archive (doi:10.1021/je0340912).
Where “and” joins values, the source holds several entries; their conditions need not be identical. Equal values may be shown once. ± gives the expanded uncertainty stated by the source.

Experiments:
[1] = Liquid; for mass density: 101.33 kPa
[2] = excess molar enthalpy (molar enthalpy of mixing); xn = mol fraction of the nth substance listed; settings: 101.32 kPa, Liquid, Flow calorimetry

C=C(C)CC(C)(C)C [2,4,4-trimethyl-1-pentene]
[1]
Settings	mass density [kg/m3]	vapor or sublimation pressure
298.15 K	711.3 ± 1	–
374.34 K	–	101.4 ± 0.3 kPa and 101.3 ± 0.3 kPa

C=C(C)CC(C)(C)C [2,4,4-trimethyl-1-pentene] + CC(C)(C)O
[2], 300.15 K
Settings	excess molar enthalpy [kcal/mol]
x2 = 0.0529	0.125 ± 0.00148
x2 = 0.0811	0.151 ± 0.00174
x2 = 0.1559	0.188 ± 0.00213
x2 = 0.2264	0.208 ± 0.00232
x2 = 0.2928	0.218 ± 0.00239
x2 = 0.3555	0.225 ± 0.00239
x2 = 0.4148	0.227 ± 0.00263
x2 = 0.471	0.228 ± 0.00263
x2 = 0.5241	0.226 ± 0.00263
x2 = 0.5242	0.225 ± 0.00239
x2 = 0.5747	0.222
x2 = 0.6229	0.216 ± 0.00239
x2 = 0.6687	0.207 ± 0.00232
x2 = 0.7124	0.195 ± 0.0022
x2 = 0.7541	0.18 ± 0.00203
x2 = 0.7939	0.161 ± 0.00186
x2 = 0.832	0.141 ± 0.00165
x2 = 0.8685	0.118 ± 0.00141
x2 = 0.9034	0.0915 ± 0.00115
x2 = 0.9369	0.0626 ± 0.00086
x2 = 0.9691	0.0326 ± 0.000574

C=C(C)CC(C)(C)C [2,4,4-trimethyl-1-pentene] + CCC(C)O
[2], 298.15 K
Settings	excess molar enthalpy [kcal/mol]
x2 = 0.0544	0.13 ± 0.00153
x2 = 0.0832	0.159 ± 0.00184
x2 = 0.1597	0.202 ± 0.00225
x2 = 0.2314	0.227 ± 0.00263
x2 = 0.2987	0.243 ± 0.00263
x2 = 0.3621	0.251 ± 0.00263
x2 = 0.4217	0.252 ± 0.00287
x2 = 0.4781	0.249 ± 0.00263
x2 = 0.5313	0.241 ± 0.00263
x2 = 0.5818	0.229 ± 0.00263
x2 = 0.6296	0.213 ± 0.00237
x2 = 0.675	0.196 ± 0.0022
x2 = 0.7182	0.177 ± 0.00201
x2 = 0.7593	0.156 ± 0.00179
x2 = 0.7986	0.134 ± 0.00158
x2 = 0.836	0.112 ± 0.00136
x2 = 0.8717	0.0891 ± 0.00112
x2 = 0.9059	0.0665 ± 0.000908
x2 = 0.9386	0.0437 ± 0.000669
x2 = 0.9699	0.0219 ± 0.000454

CC(C)(C)O [2-methylpropan-2-ol]
[1]
Settings	mass density [kg/m3]	vapor or sublimation pressure [kPa]
303.15 K	775.5 ± 0.6	–
355.13 K	–	100.6 ± 0.2

CCC(C)O (configuration not stated) [butan-2-ol]
[1]
Settings	mass density [kg/m3]	vapor or sublimation pressure [kPa]
298.15 K	802.4 ± 0.6	–
372.14 K	–	100.5 ± 0.2
